For data set [1], the system named is P. falciparum transmission to Anopheles stephensi mosquitoes. Description: P. falciparum standard membrane-feeding assay (SMFA), luciferase oocyst readout. As to conditions: 10 µM. The data set is classed as in vivo, Plasmodium falciparum. The procedure:
SMFAs were performed commercially by TropiQ Health Sciences (Nijmegen, The Netherlands)[26]. Cultures of mature stage V gametocytes of P. falciparum expressing a GFP-Luciferase fusion protein under the control of the hsp70 promoter were treated with DMSO or 10 µM of test compound for 24 h (indirect mode). They were then mixed with uninfected erythrocytes and pelleted. The cell pellet was resuspended in human serum to form the blood meal and fed to Anopheles stephensi mosquitoes. […] Eight days after infection, mosquitoes were individually processed and their lysate assessed for luciferase activity in comparison to uninfected mosquitoes.

In data set [2] the test system is P. falciparum male gametogenesis. Description: Phenotypic immunofluorescence assay of male gamete formation. The data set is classed as cell-based, Plasmodium falciparum. The following applies: 10 µM, 24 h treatment, 0–20 min post induction. The method, then: In vitro evolution followed by whole-genome analysis is the primary approach currently used for understanding how compounds act in malaria parasites. As it is not currently feasible to generate resistant mutants to compounds that are only active in the gametocyte stage (resistance generation requires extensive rounds of replication in the presence of compound), phenotypic immunofluorescence assays were performed to evaluate compound activity on male gamete formation. Gametocytes treated with 10 µM of each compound were sampled at 0, 2, 3, 4, 6, 8, 10, and 20 min post induction of gamete formation before imaging (Fig. 4). Individual male cells were then extracted from the images and analysed for shape and haploid chromosome number/DNA content to quantitatively measure the progression of DNA replication (n = 198–668 cells) (Fig. 5a).
Day 14 gametocyte culture was divided into 4 ml aliquots and treated either with DMSO or 10 µM test compound. After 24 h, 500 µl aliquots of the non-activated gametocytes were fixed in an equal volume of 8% paraformaldehyde (PFA) warmed to 37 °C to generate Time = 0 min (t = 0) samples. Gamete formation was induced in the remainder of the cultures by cooling to RT and addition of 500 µl ookinete medium. At t = 2, 3, 4, 6, 8, 10, and 20 min 500 µl of culture was removed and immediately fixed in equal volume of 8% PFA at room temperature for 15 min. Fixed cells were diluted in PBS and allowed to settle onto poly-L-lysine-coated glass coverslips overnight. The next day, cells were washed in PBS, permeabilized in 0.1% Triton X-100 and blocked in PBS + 10% FBS. Cells were stained with mouse anti-alpha tubulin (Sigma) clone DM1A (1:500 dilution) and rabbit anti-Glycophorin A (Abcam) clone EPR8200 (1:1000 dilution). Staining was visualised with anti-mouse […] and anti-rabbit Alexa555 (Thermo-Fisher) both at 1:1000 dilution. Coverslips were mounted onto glass slides with VectaShield mountant (Vector Laboratories) containing 4′,6-diamidino-2-phenylindole (DAPI) to visualise cellular DNA. Cells were imaged at random (n = 195–668 cells per test compound) using a Nikon Ti-E widefield microscope using a × 100 objective lens and taken in 0.2 µm slice z-stack images to capture the whole cell. All images were converted to maximum intensity projections in NIS Elements v4.20 and all further image processing performed in ICY. Individual cells were manually selected and automatically extracted from each image using the Active Contours plugin gated to the tubulin staining. Using the ROI Statistics plugin, the following parameters were calculated for each cell and exported to MS Excel: Cell area, Cell roundness, Cell elongation, and Average intensity of blue channel (DNA). […] Outlier cells from the curve were all exflagellating (Supplementary Fig. 6). These two parameters were combined as a ratio of roundness:elongation to produce the parameter Cell shape. Cellular DNA content was estimated by multiplying the average pixel intensity of the blue channel (after subtracting the background intensity of an empty area in the same parent image) with the total cell area.

In data set [3] the test system is P. falciparum female gametocytes. As to the kind of experiment: Pf DGFA wash-out format, female readout. The format is cell-based. The following applies: Plasmodium falciparum; 48h preincubation/wash-out.
The test system of data set [4] is NF54 stage V gametocytes. As to the kind of experiment: Gametocytocidal MitoTracker-based viability assay (SaLSSA). The format is cell-based, Plasmodium falciparum NF54. As to conditions: for pIC50: Plasmodium falciparum, NF54, 72h incubation, read-out: Pf Stage V GCT (mitotracker assay) IC50. The procedure: As another independent assessment of the metabolic viability of compound-treated stage V gametocytes, the Saponin-lysis Sexual Stage Assay (SaLSSA) was employed. A volume of 100 nl of test compounds were pre-dispensed in 384-well plates (781091-2B, Greiner) in 12-point dose response (25 µM to 1.41 × 10^−4 µM), prior to the addition of synchronous NF54 stage V gametocytes (40 µl at 0.70% gametocytaemia). Assay plates were then incubated for 72 h in a low oxygen environment (92% N2, 5% CO2, 3%O2) before a 10 µl MitoTracker Red CMXRos (2.5 µM) and saponin solution (0.13%w/v) was added. Plates were returned to 37 °C for 1 h to allow for complete red blood cell lysis, after which viable gametocytes were detected using an Operetta high-content imaging system. Analysis was performed using the Harmony package software, with potency calculated relative to puromycin (positive control) and DMSO (negative control).

The subject of data set [5] is P. falciparum male gametocytes. Description: Pf DGFA wash-out format, male readout. The data set is classed as cell-based. The following applies: Plasmodium falciparum; 48h preincubation/wash-out.
The test system of data set [6] is P. berghei 507 strain in mice, transmission to Anopheles stephensi. Description: P. berghei mosquito (direct) feeding assay in infected mice. The data set is classed as in vivo, Plasmodium berghei. The procedure:
Six- to eight-week female T0 mice were treated with phenylhydrazine 3 days prior to intraperitoneal (IP) inoculation with 100 µl of mouse blood infected with the constitutively GFP expressing P. berghei 507 strain[39]. On day 3 after infection, thin blood smears were taken from tail blood to quantify parasitaemia and gametocytaemia. […] […] Twenty-four hours after feeding, unfed mosquitoes were removed and remaining mosquitoes maintained for a further 9 days on sucrose solution. Mosquito midguts were then dissected, imaged and oocysts quantified by semi-automated computer analysis.

Data set [7] is described as follows: Aqueous solubility (DMPK). The format is physicochemical. The following applies: aqueous medium. The method, then:
DMPK analyses were performed by the Dundee University Drug Discovery Unit and BPCA/DDD599 stability analysis were undertaken by chemists at GlaxoSmithKline using in-house, standardised approaches.

Where [8] appears, read: mode indirect, per experiment, listed as DDD881.
[9] abbreviates: Dose 30min prior, per mouse, listed as DDD881.
Where [10] appears, read: per mouse, 50mg/kg, baseline, listed as DDD504, 50 mg/kg.
The mark [11] stands for this setting: per mouse, 50mg/kg, listed as DDD504, 50 mg/kg.

These results are taken from publication PMC6143625, “A high throughput screen for next-generation leads targeting malaria parasite transmission” (Nature Communications, 2018).

The structures appear in SMILES notation. pIC50: −log10 of the molar value. “And” between values parts separate entries of the source, which are not always exact repeats. Identical values can stand only once. Where only a bound is given, the exact number is not on record here.

As for `O=C(CCl)Nc1ccc(Br)cc1` [BPCA, N-(4-bromophenyl)-2-chloroacetamide], in data set [1] (indirect mode), the “prevalence of infection, % of the DMSO control” value was 25.12%. Also, in data set [1] (indirect mode, 24 h gametocyte incubation, oocysts 8 days later), the “mean normalised luciferase intensity” value is recorded as 5.27 arbitrary units. The “phenotype of male gametogenesis (IFA)” value in data set [2] is “rounded up after induction but most cells did not replicate their DNA and none exflagellated”.

Consider `CC(=O)c1c(C)nn(CC(=O)Nc2ccc(Br)cc2)c1C` [DDD01027599], for which the pIC50 in data set [3] is 5.51; in data set [4], 5.26; in data set [5] it was 6.01.

As for `O=S(=O)(NCC1(O)CCOc2ccccc21)c1ccccc1F` (centres unmarked) [DDD01028073], the figures for the pIC50 in data set [3], in data set [4] and in data set [5] were below 4.90, below 4.60 and below 4.90, respectively.

Take `Cc1ccc(S(=O)(=O)NCC2(O)CCOc3ccccc32)s1` (centres unmarked) [DDD01028074]: the figures for the pIC50 in data set [3], in data set [4] and in data set [5] were below 4.90, below 4.60 and below 4.90, respectively.

For `O=S(=O)(NCC1(O)CCOc2ccccc21)c1ccc(Cl)s1` (centres unmarked) [DDD01028075], the pIC50 is below 4.90 in data set [3], below 4.60 in data set [4] and below 4.90 in data set [5].

With `O=S(=O)(NCC1(O)CCOc2ccccc21)c1ccccc1Br` (centres unmarked) [DDD01028076], the pIC50 in data set [3] is below 4.90; in data set [4] it was below 4.60; in data set [5], below 4.90.

In the case of `COc1cccc(-n2ccc3nc(N4CCCC4)ncc3c2=O)c1` [DDD01034957], in data set [4], the pIC50 is below 4.60.

Consider `O=S(=O)(NCC1(O)CCOc2ccccc21)c1cccs1` (centres unmarked) [DDD01035879], for which the pIC50 was below 4.90 in data set [3], below 4.60 in data set [4] and below 4.90 in data set [5].

For `O=S(=O)(NCC1(O)CCOc2ccccc21)c1ccc(Br)s1` (centres unmarked) [DDD01035881], the pIC50 in data set [3] was below 4.90; in data set [4], below 4.60; in data set [5], below 4.90. Besides, the Average oocyst intensity in data set [1] (setting [8]) was 4.2 and 4.1. In data set [1] (setting [8]), the Prevalence was 1.4% and 0.0%. In data set [2], the “phenotype of male gametogenesis (IFA)” value is “only a few cells replicated their DNA and none exflagellated”. Moreover, the “blockade on oocyst intensity” value in data set [6] (50 mg kg^−1 IP, 30 min before the feed) came to 99.6%. In data set [6] (50 mg kg^−1 IP, 24 h before mosquito feeding), the “transmission blocking efficacy at the oocyst level” value is listed as “no transmission blocking efficacy”. Further, in data set [6] (50 mg kg^−1 IP, 24 h exposure), the “suppression of gametocytaemia compared to vehicle-only controls” value is “not impacted”. In addition, the “effect on asexual parasitaemia” value in data set [6] (50 mg kg^−1 IP, single dose) is reported as “not impacted”. The “Infection Prevalence (%)” value in data set [6] (setting [9]) was 54.35% and 23.08%; in data set [6] (Dose 24hr prior to feeding, per mouse), 100%. The “Mean oocysts per mosquito” value in data set [6] (setting [9]) was 1.43 and 0.60; in data set [6] (Dose 24hr prior to feeding, per mouse, listed as DDD881), 330.22 and 190.61. This molecule returned a solubility in data set [7] above 250 µM.

Take `CC(c1ccco1)N(C(=O)CNc1ccc(C#N)cc1)C1CC1` (centres unmarked) [DDD01062645]: the pIC50 in data set [3] is below 4.90; in data set [4] it was below 4.60; in data set [5], below 4.90.

With `Cc1ccc(CN(c2cc(C)nc3nc(C(F)(F)F)nn23)C2CC2)cc1` [DDD01063654], in data set [4], the pIC50 was below 5.00.

In the case of `CC(NCC1CCN(CCO)CC1)c1ccc(OC(F)(F)F)cc1` (centres unmarked) [DDD01073716], the pIC50 was 5.91 in data set [3], 5.15 in data set [4] and 5.97 in data set [5].

`CN1CCC(NCC(O)c2cccc(OCc3ccccc3)c2)CC1` (centres unmarked) [DDD01079164]: the figures for the pIC50 in data set [3], in data set [4] and in data set [5] were 5.97, 5.30 and 5.89, respectively.

On to `CC(c1cccs1)N(C)Cc1cnc(-c2ccccn2)nc1` (centres unmarked) [DDD01246628], for which the pIC50 in data set [4] is 6.70.

Turning to `CC(C)CN1CCn2nc(CNc3ncnc4[nH]ccc34)cc2C1` [DDD01249504], in data set [3], the pIC50 is below 4.60. The “phenotype of male gametogenesis (IFA)” value in data set [2] is “the second and third divisions were delayed with a smaller proportion of cells reaching 8n”. In data set [6] (setting [10]), the “Asexual parasitemia (%) Before treatment” value is 0.74% and 0.98%; the “Gametocytemia (%) Before treatment” value was 0.21% and 0.15%. Also, in data set [6] (setting [11]), the “Asexual parasitemia (%) 24hr After treatment” value was 5.35% and 7.03%; the “Gametocytemia (%) 24hr After treatment” value was 1.21% and 1.88%. In addition, the pIC50 in data set [4] was below 4.60. The pIC50 in data set [5] was 5.56.

Turning to `Cc1nn(C)c(Oc2ccc(Cl)cc2)c1CN1CCC(CN)C1` (centres unmarked) [DDD01254274], the values for the pIC50 in data set [3], in data set [4] and in data set [5] were below 4.60, below 4.90 and 5.55, respectively.

In the case of `CCc1ccc(C2c3nc[nH]c3CCN2Cc2nccn2CC)nc1` (centres unmarked) [DDD01254473], the pIC50 in data set [3] is 6.15; in data set [4], 7.10; in data set [5] it was 5.24. The “activity in the mitotracker assay” value in data set [4] (profiling) is on record as “submicromolar”.

`CCOc1ccc2ccccc2c1CNCC1CCNCC1.Cl.Cl` [DDD01255740]: the pIC50 in data set [3] was 5.78; in data set [4], 5.45; in data set [5] it was 6.17.

With `Cc1ccc(-c2cc(C(=O)NCCC3=CCCCC3)[nH]n2)o1` [DDD01255968], the pIC50 in data set [3] is below 4.90; in data set [4], below 4.60; in data set [5], 5.66. The “phenotype of male gametogenesis (IFA)” value in data set [2] is “did not replicate their DNA and remained with 1n genome copies”.

For the molecule `CCn1ncc(Br)c1CN(C)S(=O)(=O)c1ccc(C)cc1` [DDD01259521], in data set [4], the pIC50 was below 4.60.
